Test [1] concerns C. albicans NCPF3281. Briefly: Candida panel MIC, serial dilution in 96-well plates. The class given is cell-based, Candida albicans. The settings on record: Candida albicans, NCPF3281, 24 h, read-out: MIC C. albicans NCPF3281. On the procedure: (§1) The minimum inhibitory concentration of test compounds were determined in a panel of Candida species (see Table 4 below), using the a serial dilution method in 96-well plates using the following protocol.
(§2) Starter cultures of fungal strains to be tested were grown in 3 mL of RPMI 2% glucose media incubated at 37° C. with shaking at 200 rpm overnight. The culture media used was 900 mL H2O; 10.4 g RPMI 1640 (with L-glutamine and a pH indicator but without bicarbonate); 34.5 g MOPS and 18 g glucose. The pH of the media was adjusted to 7.0 with 1 M sodium hydroxide.
(§3) Solutions of the compound to be tested were prepared by dissolving the compound in DMSO and subsequently into media to the desired concentrations. 200 μL of compound solution was then added to the wells of the 96-well plate using a serial dilution method row-by row of the plate to give a compound concentration gradient across the plate of from 128 μg/mL to 0.25 μg/mL. The last two rows of each plate were control rows containing the culture media alone and the media plus fungi.
(§4) The fungi starter cultures were diluted 1:10 in water in cuvettes. This was then further diluted to an optical density (OD600) of 0.01 in media. 100 μL of the fungi was added to each well giving a starting concentration of fungus of 0.5-5×10^5/mL. One species of fungus was used on each plate. The plates were then held at 37° C. for 24 hours.
(§5) A plate reader was used to measure growth in each well at OD530 nm and the MIC was determined for each test compound. The MIC is defined as the lowest concentration giving rise to inhibition of ≥50% of that of the drug-free control well containing the fungus and media.

Test [2] relates to C. glabrata NCPF8018. The description is as above. The following applies: Nakaseomyces glabratus, NCPF8018; Table 4, common panel; 24 hours, ≥50% inhibition; read-out: MIC C. glabrata NCPF8018. It is filed as cell-based, Candida glabrata. How it is done:
as §1, §2
(§6) Solutions of the compound to be tested were prepared by dissolving the compound in DMSO and subsequently into media to the desired concentrations. […] The last two rows of each plate were control rows containing the culture media alone and the media plus fungi.
as §4, §5

For test [3], the system named is C. krusei NCPF3876. Briefly: microbe, parasite or virus in culture. It is filed as cell-based, Candida krusei. The settings on record: Pichia kudriavzevii, NCPF3876; Table 4, common panel; 24 hours, ≥50% inhibition; read-out: MIC C. krusei NCPF3876. On the procedure: as §1, §2, §6, §4, §5
Test [4] relates to C. parapsilosis NCPF3209. In words: microbe, parasite or virus in culture. The class given is cell-based, Candida parapsilosis. The settings on record: Lodderomyces parapsilosis, NCPF3209; Table 4, common panel; 24 hours, ≥50% inhibition; read-out: MIC C. parapsilosis NCPF3209. On the procedure: as §1, §2, §6, §4, §5
Test [5] deals with Candida auris TDG2211. Briefly: microbe, parasite or virus in culture. The class given is cell-based. The settings on record: Candidozyma auris. On the procedure: as §1, §2, §6, §4, §5
(§7) The Candida auris strains shown in Table 7 were either taken from the National Collection of Pathogenic Fungi (NCPF) or collected as part of ongoing surveillance studies. The strains were characterised as follows.

The subject of test [6] is Candida auris TDG2506. In words: microbe, parasite or virus in culture. The class given is cell-based. The settings on record: Candidozyma auris. On the procedure:
as §1, §2, §6, §4, §5, §7

The subject of test [7] is C. auris TDG1912. Briefly: Candida panel MIC, serial dilution in 96-well plates. The class given is cell-based. The settings on record: Candidozyma auris, TDG1912, 24 h, read-out: MIC C. auris TDG1912. On the procedure:
as §1, §2, §3, §4, §5

In test [8] the test system is C. tropicalis NCPF8760. The test is described as above. It is filed as cell-based. The settings on record: NCPF8760, Table 4, common panel, 24 hours, ≥50% inhibition, read-out: MIC C. tropicalis NCPF8760. How it is done:
as §1, §2, §3, §4, §5

For test [9], the system named is Candida auris TDG1102. The description is as above. The class given is cell-based. The settings on record: Candidozyma auris, TDG1102; Table 4, extended panel; 24 hours, ≥50% inhibition; read-out: MIC Candida auris TDG1102. How it is done: as §1, §2, §3, §4, §5
The subject of test [10] is Candida auris TDG2512. The test is described as above. It is filed as cell-based. The following applies: Candidozyma auris, TDG2512, 24 h, read-out: MIC Candida auris TDG2512. On the procedure: as §1, §2, §3, §4, §5
Test [11] relates to C. auris 8971. The test is described as above. It is filed as cell-based, Candida auris. How it is done: as §1, §2, §6, §4, §5, §7
In test [12] the test system is C. auris 8977. Described as above. It is filed as cell-based, Candida auris. How it is done: as §1, §2, §6, §4, §5, §7
The subject of test [13] is C. auris 8984. The test is described as above. The class given is cell-based, Candida auris. On the procedure:
as §1, §2, §6, §4, §5, §7

The mark [14] stands for this setting: TDG2211, read-out: MIC C. auris 2211.
[15] abbreviates: TDG2506, read-out: MIC C. auris 2506.
The mark [16] stands for this setting: Candidozyma auris, 8971, read-out: MIC C. auris 8971.
[17] abbreviates: Candidozyma auris, 8977, read-out: MIC C. auris 8977.
The mark [18] stands for this setting: Candidozyma auris, 8984, read-out: MIC C. auris 8984.

≈ marks a conversion by molar mass, not a printed value. Like-named read-outs stand apart in the source and are kept apart here.

Take `OC(CN1CCCN(c2ccc(OCCN3CCOCC3)cc2)CC1)(Cn1cncn1)c1ccc(F)cc1F` (stereo not drawn) [Example 89]: the MIC in [1] is 0.156 µg/mL (≈ 0.287 µM); in [2] it was 2 µg/mL (≈ 3.69 µM); in [3], 0.5 µg/mL (≈ 0.921 µM); in [4] it was 0.0313 µg/mL (≈ 0.0577 µM); in test [5] (TDG2211, Table 4, extended panel, 24 hours, ≥50% inhibition, read-out: MIC Candida auris TDG2211) it was 0.5 µg/mL (≈ 0.921 µM); in test [6] (TDG2506, Table 4, extended panel, 24 hours, ≥50% inhibition, read-out: MIC Candida auris TDG2506) it was 4 to 8 µg/mL (≈ 7.37 to 14.7 µM). In addition, the MIC was found to be 1 µg/mL (≈ 1.84 µM) in test [7]; 2 µg/mL (≈ 3.69 µM) in test [8]; 1 µg/mL (≈ 1.84 µM) in [9]; 0.25 µg/mL (≈ 0.461 µM) in test [10]; 0.25 µg/mL (≈ 0.461 µM) in [11] (Candidozyma auris, 8971, Table 4, extended panel, 24 hours, ≥50% inhibition, read-out: MIC C. auris 8971); 0.25 µg/mL (≈ 0.461 µM) in [12] (Candidozyma auris, 8977, Table 4, extended panel, 24 hours, ≥50% inhibition, read-out: MIC C. auris 8977). The MIC in test [13] (Candidozyma auris, 8984, Table 4, extended panel, 24 hours, ≥50% inhibition, read-out: MIC C. auris 8984) is 4 to 8 µg/mL (≈ 7.37 to 14.7 µM).
With `OC(CN1CCC(N2CCC(Nc3ccc(Cc4ccccc4)cc3)CC2)CC1)(Cn1cncn1)c1ccc(F)cc1F` (stereo not drawn) [Compound number 12, 1-(4-((4-benzylphenyl)amino)-[1,4′-bipiperidin]-1′-yl)-2-(2,4-difluorophenyl)-3-(1H-1,2,4-triazol-1-yl)propan-2-ol], the MIC in test [5] (setting [14]), in [6] (setting [15]), in [11] (setting [16]), in [12] (setting [17]) and in [13] (setting [18]) was at most 0.125 µg/mL throughout.
On to `OC(CN1CCC(Nc2ccc(OCCN3CCOCC3)cc2)CC1)(Cn1cncn1)c1ccc(F)cc1F` (stereo not drawn) [Compound number 6, 2-(2,4-Difluorophenyl)-1-(4-((4-(2-morpholinoethoxy)phenyl)amino)piperidin-1-yl)-3-(1H-1,2,4-triazol-1-yl)propan-2-ol], for which the MIC in test [5] (setting [14]) was determined as 0.25 µg/mL (≈ 0.461 µM); in [6] (setting [15]), 0.25 µg/mL (≈ 0.461 µM); in test [11] (setting [16]) it was 0.03 µg/mL (≈ 0.0553 µM); in test [12] (setting [17]) it was 0.06 µg/mL (≈ 0.111 µM); in test [13] (setting [18]), 0.125 µg/mL (≈ 0.23 µM).
As to `OC(CN1CCC(Nc2ccc(Cc3ccccc3)cc2)CC1)(Cn1cncn1)c1ccc(F)cc1F` (stereo not drawn) [Compound number 11, 1-(4-((4-benzylphenyl)amino)piperidin-1-yl)-2-(2,4-difluorophenyl)-3-(1H-1,2,4-triazol-1-yl)propan-2-ol], the MIC in test [5] (setting [14]) is at most 0.125 µg/mL; in [6] (setting [15]) it was 0.125 µg/mL (≈ 0.248 µM); in test [11] (setting [16]), at most 0.125 µg/mL; in test [12] (setting [17]), at most 0.125 µg/mL; in test [13] (setting [18]) it was 0.125 µg/mL (≈ 0.248 µM).
For `OC(CN1CCC2(CCC(Nc3ccc(OCCN4CCOCC4)cc3)CC2)C1)(Cn1cncn1)c1ccc(F)cc1F` (stereo not drawn) [Compound number 87, 2-(2,4-difluorophenyl)-1-(8-((4-(2-morpholinoethoxy)phenyl)amino)-2-azaspiro[4.5]decan-2-yl)-3-(1H-1,2,4-triazol-1-yl)propan-2-ol], the MIC in [5] (setting [14]) was 0.125 µg/mL (≈ 0.209 µM); in test [6] (setting [15]) it was 0.125 µg/mL (≈ 0.209 µM); in test [11] (setting [16]), 0.25 µg/mL (≈ 0.419 µM); in test [12] (setting [17]) it was 0.25 µg/mL (≈ 0.419 µM); in test [13] (setting [18]), 0.25 µg/mL (≈ 0.419 µM).
